In patent publication US11918621B2, “Methods and treatments using toll-like receptor agonists to mitigate hematopoietic myeloid loss, increase gastrointestinal recovery and reduce tumor growth” (priority 2017, dated 2024):
Entries after “also recorded” stand apart in the source; their conditions may differ. Peptide text beside a SMILES is read from it. * marks the point of attachment. X1 = CCCCCCCCCCCCCCCC(=O)OCC(C*)OC(=O)CCCCCCCCCCCCCCC

Columns and labels:
[1] = system: mice treated with FSL-1 post TBI; test: Late effects of radiation: long-term survivors, MRI of tissues; format: in vivo; details: survivors of more than 600 days
From the text: MRI was used to detect multiple tissues in these survivors, such as brain, gut, kidney or spleen. […] FSL-1 is found to accelerate hematopoietic cell recovery in bone marrow, spleen and periphery, and augments systemic levels of hematopoiesis stimulating factors (G-CSF).

B16 melanoma tumor cells = test: B16 melanoma tumor model with cisplatin chemotherapy
Experimental: The impact of combining FSL-1 treatment with chemotherapy as a therapeutic against cancer was also tested. In this study, B16 melanoma tumor cells (50,000) in matrigel matrix were implanted into the flank (SC) of wild type animals and were allowed to grow 10 days to palpation (˜3-5 mm in diameter). Mice were then treated with chemotherapy agent cisplatin (intravenous IV, 100 μg/mouse) with and without FSL-1 (SC, 40 μg/mouse). Changes in tumor volume (ellipsoidal volume calculation of ½ width*width*length, mm^3) were monitored along with changes in body weight and condition.

[2] = system: irradiated male C57BL/6 mice; test: Radiomitigation activity of TLR2 ligands after TBI; format: in vivo; details: IP injection 24 hr post TBI
Experimental: The radiomitigation activity of TLR2 ligands was delineated (FIGS. 1C and 1D), including FSL-1, by irradiating male C57BL/6 mice and treating (IP injections) with either FSL-1, Pam2CSK4 (Pam2Cys-SKKKK, TLR2/6 ligand), or Pam3CSK4 (Pam3Cys-SKKKK, TLR1/2 ligand) at 24 hours (hr) post TBI.

irradiated mice = details: only when injected subcutaneously daily from day 1 to 16 (16 doses); cited from earlier work
[3] = system: C57BL/6 mice exposed to 9.2 Gy gamma radiation (total body irradiation); test: Survival and clinical score after lethal total body irradiation, TLR ligands given IP; format: in vivo; details: 9.2 Gy TBI, IP injection one day after radiation, survival over 30 days
Experimental: To examine the role of TLR ligands as radio-mitigators, FSL-1 (TLR2/6 ligand) was first compared with other TLR ligands (FIGS. 1A and 1B). In this experiment, C57BL/6 mice were exposed to 9.2 Gy gamma radiation (total body irradiation, or TBI) using 137-Cesium irradiator and then the mice were treated with TLR ligands via intraperitoneal (IP) injections one day after radiation. The impact of CpG-ODN2395 (CpG, TLR9 agonist), Flagellin FliC (Fla, TLR5 agonist), MPLA (TLR4 agonist) or FSL-1 (Pam2[…], TLR2/6 agonist) in comparison to mice treated with physiological water (no treatment, NT) was examined. Survival was monitored over 30 days and clinical scores were recorded. […] Eight independent experiments have been completed, each showing the survival rate of FSL-1-treated mice ranged from 50% to 100% with the mean rate of 80%. The lowest one is presented herein.
The Clinical Score is based on changes to body condition that included body weight, body temperature, physical appearance, grooming, posture, activity/behavior, appetite and hydration. Supplementation with wet feed, subcutaneous fluids, long sipper tubes, were provided as needed.

With CCCCCCCCCCCCCCCC(=O)OCC(CSC[C@H](N)C(=O)NCC(=O)N[C@@H](CC(=O)O)C(=O)N1CCC[C@H]1C(=O)N[C@@H](CCCCN)C(=O)N[C@@H](Cc1c[nH]cn1)C(=O)N1CCC[C@H]1C(=O)N[C@@H](CCCCN)C(=O)N[C@@H](CO)C(=O)N[C@@H](Cc1ccccc1)C(=O)O)OC(=O)CCCCCCCCCCCCCCC (stereo partly shown) [FSL-1] (H-C(X1)GDPKHPKSF-OH) the “MRI of tissues (brain, gut, kidney, spleen)” value [1] was “no physiologic changes”, the “symptoms of disease in long-term survivors” value [1] was “no symptoms of any diseases; also recorded: without any symptoms of leukemia or other diseases” and the body weight (B16 melanoma tumor cells; mouse, in vivo) was “maintained weight for nearly 2 weeks following treatment”.

In the case of N.N.[Cl][Pt][Cl] [cisplatin], the “animals reaching the 2 cm tumor diameter endpoint” value (B16 melanoma tumor cells; by day 19) is reported as “two”, the body condition (B16 melanoma tumor cells; mouse, in vivo) is reported as “reduced body condition” and the body weight (B16 melanoma tumor cells; mouse, in vivo) is reported as “dramatically lost weight after day 19”.

In the case of Pam2Cys-SKKKK [Pam2CSK4], the survival [2] is reported as “promoted survival”.

For Pam3Cys-SKKKK [Pam3CSK4], the survival [2] was “promoted survival”.

B1: G-CSF: granulocyte colony-stimulating factor, approved radiation countermeasure (protein, UniProt P09919 31-207, looked up)
Granulocyte …: TPLGPASSLPQSFLLKCLEQVRKIQGDGAALQEKLVSECATYKLCHPEELVLLGHSLGIPWAPLSSCPSQALQLAGCLSQLHSGLFLYQGLLQALEGISPELGPTLDTLQLDVADFATTIWQQMEELGMAPALQPTQGAMPAFASAFQRRAGGVLVASHLQSFLEVSYRVLRHLAQP
In the case of B1, the “survival of irradiated mice” value (irradiated mice) is listed as “increase the survival”.

B2: Flagellin FliC: TLR5 agonist (protein, UniProt P06179 2-495, looked up)
Flagellin: AQVINTNSLSLLTQNNLNKSQSALGTAIERLSSGLRINSAKDDAAGQAIANRFTANIKGLTQASRNANDGISIAQTTEGALNEINNNLQRVRELAVQSANSTNSQSDLDSIQAEITQRLNEIDRVSGQTQFNGVKVLAQDNTLTIQVGANDGETIDIDLKQINSQTLGLDTLNVQQKYKVSDTAATVTGYADTTIALDNSTFKASATGLGGTDQKIDGDLKFDDTTGKYYAKVTVTGGTGKDGYYEVSVDKTNGEVTLAGGATSPLTGGLPATATEDVKNVQVANADLTEAKAALTAAGVTGTASVVKMSYTDNNGKTIDGGLAVKVGDDYYSATQNKDGSISINTTKYTADDGTSKTALNKLGGADGKTEVVSIGGKTYAASKAEGHNFKAQPDLAEAAATTTENPLQKIDAALAQVDTLRSDLGAVQNRFNSAITNLGNTVNNLTSARSRIEDSDYATEVSNMSRAQILQQAGTSVLAQANQVPQNVLSLLR
For B2, the “protection from radiation-induced death” value [3] was “did not show any protection”.
